Experimental data as given in patent US10487349B2, “Use of a fluidic device” (GRADIENTECH AB, priority 2013, dated 2019).

Key:
[1] = tested on: E. coli K12 MG1655; test: Microfluidic 3D culture matrix concentration-gradient antibiotic susceptibility test (CELLDIRECTOR Ruby); format: cell-based, Escherichia coli; conditions: E. coli K12 MG1655 in agarose 3D culture matrix; gradient ampicillin 20-0 μg/ml or spectinomycin 50-0 μg/ml
Procedure: Bacterium strain E. coli K12 MG1655 was cultured on a Luria broth (LB) plate. The E. coli cells were diluted by phosphate buffered saline (PBS) to OD600=0.1 as measured by a MULTISKAN® FC Microplate Photometer (Thermo Scientific). Same volumes of PBS with OD600=0.1 cells and low-melting temperature agarose were mixed together. A pipette with white tips was used to suck up 8 μl of the mixture and inject the mixture into the culture chamber of a microfluidic device CELLDIRECTOR® Ruby (Gradientech AB), see upper panel in FIG. 20. The fluid channel inputs of the microfluidic device were connected to fluid reservoirs comprising Muelle-Hinton medium and where one of the reservoirs also contained 20 μg/ml ampicillin. The speed of a pusher used to draw the medium into the fluid channels was set to 5 μl/min for 30 minutes and then to 2 μl/min for the rest of the time. […]
The pictures were cut to match a selected central portion of the culture chamber, see black box in FIGS. 17A and 18A. Image processing software was used to extract detected light intensity data from the pictures. A spatial growth situation distribution diagram was used to summarize the grey-scale values, i.e. detected light intensity values, of all the lines that are perpendicular to the direction of the gradient as the Y-axis with the concentration gradient as the X-axis. […]

[2] = in agarose matrix; cited from earlier work

Compound | resistance of the microorganism to the test substance, from width of the border zone [1] | diffusion constant D [2]
CN[C@@H]1[C@H](O)[C@H](NC)[C@H]2O[C@@]3(O)C(=O)C[C@@H](C)O[C@H]3O[C@@H]2[C@H]1O [spectinomycin] | presence of spectinomycin resistance | –
CC1(C)S[C@@H]2[C@H](NC(=O)[C@H](N)c3ccccc3)C(=O)N2[C@H]1C(=O)O [ampicillin] | no corresponding ampicillin resistance was detected | 0.016 cm^2/h
